system: L929 cells; assay: Necroptosis assay in L929 cells (TNF-α, z-VAD; cell viability by ATP levels); assay type: cell-based; details: Mus musculus, TNF-α (40 ng/mL), z-VAD (20 μM), 48 hours
Description: […] Then the cells were treated with TNF-α (40 ng/mL) and z-VAD (20 μM) for 48 hours, and the viability of cells was quantified by detecting adenosine triphosphate (ATP) levels. DMSO pretreatment group was used as negative controls, Nec-1 pretreatment group was used as positive controls.

SMILES | IC50 [nM]
O=C(Nc1nc2ccc(-c3cnc4c(c3)N(C(=O)CC3CCOCC3)CC4)nc2s1)C1CC1 [Compound B63] | 8.5

system: HT29 cells; assay: Necroptosis assay in HT29 cells (TNF-α, Smac mimetic, z-VAD; cell viability); assay type: cell-based; details: Homo sapiens, HT-29; TNF-α (40 ng/mL), Smacmimetic (100 nM), z-VAD (20 μM), 48 hours
Description: Human colon cancer HT29 cells were used in a necroptosis assay. For this assay, HT29 cells were added to 96-well plates and then were pre-treated with 10 μM of the test compound for one hour. Then the cells were treated with TNF-α (40 ng/mL), Smacmimetic (100 nM) and z-VAD (20 μM) for 48 hours, and the viability of cells was quantified. DMSO pretreatment group was used as negative controls, Nec-1 pretreatment group was used as positive controls.
In Table 2, (1) “ND” indicates “not detected;” (2) Explanation for inhibition %: Taking Compound B14 as an example, its inhibition % was 30% (50 nM). It means that the when Compound B14 at a concentration of 50 nM was used in the HT29 Cell Assay, the necrosis of cells were inhibited at 30%.

SMILES | IC50 [nM]
O=C(Nc1nc2ccc(-c3cnc4c(c3)N(C(=O)OC3CCOCC3)CC4)cc2s1)C1CC1 [Compound B54] | 2
CC(=O)Nc1nc2ccc(-c3cnc4c(c3)N(C(=O)OC3CCOCC3)CCN4)cc2s1 [Compound B41] | 110
CN1CCN(C(=O)OC2CCOCC2)c2cc(-c3ccc4nc(NC(=O)C5CC5)sc4c3)cnc21 [Compound B45] | 18
CC(=O)Nc1nc2ccc(-c3cnc4c(c3)N(C(=O)CC3CCOCC3)CC4)cc2s1 [Compound B61] | 39
CC(=O)Nc1nc2ccc(-c3cnc4c(c3)N(C(=O)OC3COCCOC3)CCO4)cc2s1 [Compound B27] | 132
O=C(Nc1nc2ccc(-c3cnc4c(c3)N(C(=O)CC3CCOCC3)CC4)nc2s1)C1CC1 [Compound B63] | 25
O=C(Nc1nc2ccc(-c3cnc4c(c3)N(C(=O)OC3CCNCC3)CC4)cc2s1)C1CC1 [Compound B67, Piperidin-4-yl-6-(2-(cyclopropanecarboxamido)benzo[d]thiazol-6-yl)-2,3-dihydro-1H-pyrrolo[3,2-b]pyridine-1-carboxylate] | 300
CC(=O)Nc1nc2ccc(-c3cnc4c(c3)N(C(=O)OC3CCCCC3)CCO4)nc2s1 [Compound B31] | 8.5
O=C(Nc1cn2cc(-c3cnc4c(c3)N(C(=O)OC3CCOCC3)CC4)ccc2n1)C1CC1 [Compound B56] | 4.6
CNC(=O)Nc1nc2ccc(-c3cnc4c(c3)N(C(=O)OC3CCOCC3)CC4)nc2s1 [Compound B71] | 33.4
O=C(Nc1nc2ccc(-c3cnc4c(c3)N(C(=O)OC3COC3)CC4)cc2s1)C1CC1 [Compound B78, Oxetan-3-yl-6-(2-(cyclopropanecarboxamido)benzo[d]thiazol-6-yl)-2,3-dihydro-1H-pyrrolo[3,2-b]pyridine-1-carboxylate] | 6.7
CC(=O)Nc1nc2ccc(-c3cnc4c(c3)N(C(=O)CC3CCOCC3)CCO4)cc2s1 [Compound B36] | 530
Nc1nc2cc(-c3cnc4c(c3)N(C(=O)OC3CCCCC3)CCO4)ccn2n1 [Compound B4] | 90
CC(=O)Nc1nc2ccc(-c3cnc4c(c3)N(C(=O)OC3CCCCC3)CCN4)cc2s1 [Compound B40, Cyclohexyl-7-(2-acetamidobenzo[d]thiazol-6-yl)-3,4-dihydropyrido[2,3-b]pyrazine-1(2H)-carboxylate] | 24
CC(=O)Nc1nc2ccc(-c3cnc4c(c3)N(C(=O)OC3CCCCCC3)CCO4)cc2s1 [Compound B26] | 3.2
O=C(Nc1cn2nc(-c3cnc4c(c3)N(C(=O)OC3CCOCC3)CC4)ccc2n1)C1CC1 [Compound B58] | 17
CC(C)(C)OC(=O)Nc1cn2cc(-c3cnc4c(c3)N(C(=O)OC3CCCCC3)CCO4)ccc2n1 [Compound B10] | 5
O=C(Nc1nc2ccc(-c3cnc4c(c3)N(C(=O)OC3CCCCC3)CCO4)nc2s1)C1CC1 [Compound B32] | 0.9
CC(=O)Nc1nc2ccc(-c3cnc4c(c3)N(C(=O)CC3CCCCC3)CCO4)cc2s1 [Compound B29] | 27
CC(=O)Nc1cn2cc(-c3cnc4c(c3)N(C(=O)OC3CCOCC3)CC4)ccc2n1 [Compound B55] | 49
CC(=O)Nc1nc2ccc(-c3cnc4c(c3)N(C(=O)OC3CCCCC3)CC(=O)N4)cc2s1 [Compound B39, Cyclohexyl-7-(2-acetamidobenzo[d]thiazol-6-yl)-3-oxo-3,4-dihydropyrido[2,3-b]pyrazine-1(2H)-carboxylate] | 2700
CC(=O)Nc1cn2nc(-c3cnc4c(c3)N(C(=O)OC3CCCCC3)CCO4)ccc2n1 [Compound B12] | 11
CC(=O)Nc1nc2ccc(-c3cnc4c(c3)N(C(=O)OC3CCOCC3)CCC4)cc2s1 [Compound B49] | 11.4
Nc1nc2ccc(-c3cnc4c(c3)N(C(=O)OC3CCCCC3)CCO4)cn2n1 [Compound B6] | 90
O=C1Cn2c(nc3ccc(-c4cnc5c(c4)N(C(=O)OC4CCCCC4)CCO5)cc32)N1 [Compound B34] | 2300
O=C(Nc1nc2ccc(-c3cnc4c(c3)N(C(=O)OC3CCOCC3)CCC4)cc2s1)C1CC1 [Compound B50, tetrahydro-2H-pyran-4-yl-7-(2-(cyclopropanecarboxamido)benzo[d]thiazol-6-yl)-3,4-dihydro-1,5-naphthyridine-1(2H)-carboxylate] | 1.5

SMILES | IC50 [nM]
CCN1CCN(C(=O)OC2CCCCC2)c2cc(-c3ccc4nc(NC(C)=O)sc4c3)cnc21 [Compound B46] | 70
CNC(=O)Nc1cn2cc(-c3cnc4c(c3)N(C(=O)OCC3CC3)CC4)ccc2n1 [Compound B75] | 19
O=C1CCn2c(nc3ccc(-c4cnc5c(c4)N(C(=O)OC4CCCCC4)CCO5)cc32)N1 [Compound B33, Cyclohexyl7-(2-oxo-1,2,3,4-tetrahydrobenzo[4,5]imidazo[1,2-a]pyrimidin-7-yl)-2,3-dihydro-1H-pyrido[2,3-b][1,4]oxazine-1-carboxylate] | 15
CC(=O)Nc1nc2ccc(-c3cnc4c(c3)N(C(=O)OC3CCCCC3)CCN4C3CC3)cc2s1 [Compound B47] | 157
CC(C)(C)OC(=O)Nc1nc2ccc(-c3cnc4c(c3)N(C(=O)OC3CCOCC3)CCO4)cc2s1 [Compound B17, tetrahydro-2H-pyran-4-yl-7-(2-((tert-butoxycarbonyl)amino)benzo[d]thiazol-6-yl)-2,3-dihydro-1H-pyrido[2,3-b][1,4]oxazine-1-carboxylate] | 26
CNC(=O)Nc1nc2ccc(-c3cnc4c(c3)N(C(=O)OCC3CC3)CC4)cc2s1 [Compound B73] | 1.8
O=C(Nc1nc2ccc(-c3cnc4c(c3)N(C(=O)CC3CCOCC3)CC4)cc2s1)C1CC1 [Compound B62, N-(6-(1-(2-(tetrahydro-2H-pyran-4-yl)acetyl)-2,3-dihydro-1H-pyrrolo[3,2-b]pyridin-6-yl)benzo[d]thiazol-2-yl)cyclopropanecarboxamide] | 1.9
CC(=O)Nc1nc2ccc(-c3cnc4c(c3)N(C(=O)OC3CCCCC3)CCO4)cc2s1 [Compound B2, Cyclohexyl-7-(2-acetamidobenzo[d]thiazol-6-yl)-2,3-dihydro-1H-pyrido[2,3-b][1,4]oxazine-1-carboxylate] | 2
CC(=O)Nc1nc2ccc(-c3cnc4c(c3)N(C(=O)OC3CCOCC3)CC4)cc2s1 [Compound B53, tetrahydro-2H-pyran-4-yl6-(2-acetamidobenzo[d]thiazol-6-yl)-2,3-dihydro-1H-pyrrolo[3,2-b]pyridine-1-carboxylate] | 4.7
O=C(Nc1cn2cc(-c3cnc4c(c3)N(C(=O)CC3CCOCC3)CC4)ccc2n1)C1CC1 [Compound B64] | 53
CC(=O)Nc1nc2ccc(-c3cnc4c(c3)N(C(=O)CC(C)(C)C)CCO4)cc2s1 [Compound B30] | 186
CC(=O)Nc1nc2ccc(-c3cnc4c(c3)N(C(=O)OC3CCCCC3)CCC4)cc2s1 [Compound B48, cyclohexyl-7-(2-acetamidobenzo[d]thiazol-6-yl)-3,4-dihydro-1,5-naphthyridine-1(2H)-carboxylate] | 2.4
CC(=O)Nc1nc2ccc(-c3cnc4c(c3)N(C(=O)OC3CCCCC3)CCN4C)cc2s1 [Compound B43, cyclohexyl7-(2-acetamidobenzo[d]thiazol-6-yl)-4-methyl-3,4-dihydropyrido[2,3-b]pyrazine-1(2H)-carboxylate] | 13
CC(=O)Nc1nc2ccc(-c3cnc4c(c3)N(C(=O)OC3CCOCC3)CCN4C)cc2s1 [Compound B44] | 95
CNC(=O)Nc1cn2cc(-c3cnc4c(c3)N(C(=O)OC3CCOCC3)CC4)ccc2n1 [Compound B72] | 48.1
CNCC(C)OC(=O)N1CCc2ncc(-c3ccc4nc(NC(=O)C5CC5)sc4c3)cc21 (centres unmarked) [Compound B79] | 16
CC(=O)Nc1nc2ccc(-c3cnc4c(c3)N(C(=O)OC3CCCCC3)CC4)cc2s1 [Compound B52] | 5
CC(=O)Nc1nc2cc(-c3cnc4c(c3)N(C(=O)OC3CCCCC3)CCO4)ccn2n1 [Compound B5] | 42
O=C(Nc1nc2ccc(-c3cnc4c(c3)N(C(=O)OC3CCOCC3)CCN4)cc2s1)C1CC1 [Compound B42] | 38
O=C(Nc1cn2cc(-c3cnc4c(c3)N(C(=O)OCC3CC3)CC4)ccc2n1)C1CC1 [Compound B77] | 1.7
CC(=O)Nc1ccc2cc(-c3cnc4c(c3)N(C(=O)OC3CCCCC3)CCO4)ccc2n1 [Compound B80, Cyclohexyl7-(2-acetamidoquinolin-6-yl)-2,3-dihydro-1H-pyrido[2,3-b][1,4]oxazine-1-carboxylate] | 1000
O=C(Nc1nc2ccc(-c3cnc4c(c3)N(C(=O)OC3CCOCC3)CCC4)nc2s1)C1CC1 [Compound B51] | 7.2
CC(=O)Nc1nc2ccc(-c3cnc4c(c3)N(C(=O)NC3CCCCC3)CCO4)cc2s1 [Compound B28] | 39
O=C(Nc1nc2ccc(-c3cnc4c(c3)N(C(=O)OC3CCOCC3)CC4)nc2s1)C1CC1 [Compound B59, tetrahydro-2H-pyran-4-yl6-(2-(cyclopropanecarboxamido)thiazolo[5,4-b]pyridin-5-yl)-2,3-dihydro-1H-pyrrolo[3,2-b]pyridine-1-carboxylate] | 7
O=C(Nc1nc2ccc(-c3cnc4c(c3)N(C(=O)OCC3CC3)CC4)nc2s1)C1CC1 [Compound B76] | 2.4
CNC(=O)Nc1nc2ccc(-c3cnc4c(c3)N(C(=O)OCC3CC3)CC4)nc2s1 [Compound B74] | 23
